Measured values as given in patent US8399005B2, “Use of nitric oxide to enhance the efficacy of silver and other topical wound care agents” (University of North Carolina at Chapel Hill, priority 2007, dated 2013).

Assays:
[1] = system: P. aeruginosa; assay: Bactericidal assays under static conditions (PBS); type: cell-based
Protocol: Bactericidal assays under static conditions. […] Silica nanoparticles (NO-releasing and control), PROLI/NO, and proline were added to separate aliquots of the bacterial suspension over a concentration range optimized for each system. After 1 h incubation at 37° C. with gentle agitation, 100-μL aliquots from each suspension were plated on tryptic soy agar. After overnight incubation at 37° C., the colonies on each plate were counted, allowing for calculation of the number of viable P. aeruginosa cells in each vial at the time of plating.

[2] = system: L929 cells; assay: L929 propidium iodide (PI) viability assay (Example 1); type: cell-based, mouse; settings: 2 mg/mL, L929, KRH buffer
Protocol: [formula] L929 propidium iodide (PI) viability assay. L929 cells were plated on 24-well tissue culture treated dishes (BD Bioscience #353047) at a density of 3.0×10^5 cells/ml (150×10^3 cells/well) and incubated overnight at 37° C., in 5% CO2/95% air for 18-20 h. For the PI assay, the incubation buffer was aspirated from each of the wells and replaced with 500 μL of Krebs-Ringer-HEPES (KRH) buffer containing (mM): 115 NaCl, 5 KCl, 1 CaCl2, 1 KH2PO4, 1.2 MgSO4, 25 HEPES, pH 7.4, supplemented with 30 μM of PI. The fluorescence of the cells was determined in a concentration-dependent manner against both proli/NO and proline, as monitored using a FluoStar Galaxy plate reader (BMG Labtech, Durham, N.C.) with excitation and emission filters set at 544 and 640 nm, respectively. Fluorescence was acquired at 0 and 60 min. An additional 20 min incubation of cells with 40 μM digitonin was required to completely permeabilize plasma membranes and achieve maximum PI fluorescence. Cell viability was represented as an increase in PI fluorescence from each well expressed as percentage of the maximum fluorescence obtained in cells treated with digitonin (100% cell death). S. aureus cytotoxicity assay in PBS. […] Toxicity was measured by aliquoting this bacterial solution into eppendorf tubes containing proli/NO, incubating these solutions for one hour at 37° C., and then plating them on TSA plates. […]

[3] = system: P. aeruginosa cells; assay: Confocal microscopy with DAF-2 DA NO probe and propidium iodide; type: cell-based
Text: Once inside the bacterial cell membrane, the DAF-2 DA probe is hydrolyzed to DAF-2, which is membrane-impermeable. […] Cells loaded with DAF-2 were imaged in the presence of propidium iodide (PI), which is a nucleic acid viability dye that only enters cells with compromised membranes, and fluoresces red once inside the cells. Thus, red fluorescence is indicative of cell death. […] After a peak intracellular intensity of DAF-2 fluorescence was reached, the red fluorescence of the PI began to increase, indicating entry of the PI into the cells due to membrane disruption and cell death.

[4] = system: S. aureus; settings: TSB
Protocol: (§1) Determining the Minimum Bactericidal Concentration (MBC120). […] This value, the MBC120, was acquired by growing S. aureus to an OD600=0.075 in TSB. At this value the concentration was determined to be 10^8 CFUs/mL. In order to achieve a final bacterial concentration of 10^4, four ten-fold dilutions were performed in TSB. […] For proli/NO, 1 mL of 2×10^4 CFUs/mL bacterial solution was added to various masses (0.5-16 mg). […] The plates were incubated overnight at 37° C. and enumerated. The graphs present the total CFUs present in each tube as determined by counting each colony and multiplying that number by 100 to account for both 10-fold dilutions. Determination of Fractional Bactericidal Concentration (FBC120). […] S. aureus was cultured to a concentration of 10^8 CFUs/mL and the concentration was adjusted to 2×10^4 CFUs/mL in TSB. […] After incubating the plates overnight at 37° C., viability was determined by counting the number of distinct colonies on each plate and multiplying this number by 100 to account for the two 10-fold dilutions. The numerical value of the FBC120 was obtained according to the equation:

[5] = system: S. aureus; assay: Fractional bactericidal concentration (FBC120) time-based synergistic killing assay in TSB; type: cell-based
Protocol: as §1

[6] = system: P. aeruginosa; assay: Time-based bactericidal assays under nutrient growth conditions (TSB); type: cell-based; design: amount of NO per mL required for complete bacterial killing: unit not given here
Protocol: Time-based bactericidal assays under nutrient growth conditions. To test the temporal efficacy of the NO-releasing silica nanoparticles, time-based antibacterial assays were conducted in TSB nutrient media. P. aeruginosa was cultured in TSB to a concentration of 10^8 CFU·mL^−/1 and diluted to 10^4 CFU·mL^−1 in additional TSB. […] Bacterial viability was determined as described above after incubating the plates overnight at 37° C.

[7] = type: physicochemical
Protocol: We synthesized proli/NO by subjecting a 2:1 molar ratio of sodium methoxide in methanol and proline to 5 atm of NO for 3 days. To the resulting solution excess diethyl ether was added. After vacuum removal of solvent a white solid was obtained. Its NO release was monitored using chemiluminescence; we determined that proli/NO releases a total of 1.8 μmol NO/mg in less than 70 s when exposed to PBS at pH 7.4. Release is initiated quickly by protonation of proline's cyclic amine or slowly by thermal degradation. In the MBC120 determination, proli/NO was kept on ice until exposure to bacterial solution to prevent thermal NO release. Proli/NO's MBC120 is 16 mg/mL against S. aureus. […] See Turner, T. D., et al., J Pharm. Pharmacol. 41, 775-80 (1989). […] Synergy is determined based on inhibition beyond what would be expected for each alone. […] More specifically, the MBC was used instead of the MIC, once again because we are interested in reducing a bacterium's chances of becoming resistant to the drug employed by developing conditions that will lead to a quick kill. Additionally, reducing the bacterial burden in wound beds quickly is paramount to prevent infections. […] See Feng Q. L. et al., J. Biomed. Mater. Res. 52, 662-668 (2000).
Nitric oxide release measurements. Nitric oxide release from both the diazeniumdiolate-modified silica nanoparticles and PROLI/NO was measured in deoxygenated phosphate-buffered saline (PBS, 0.01 M; 37° C.) at pH 7.4 using a Sievers NOA 280i chemiluminescence NO analyzer (Boulder, Colo.). Nitric oxide released from the donors was transported to the analyzer by a stream of N2 (70 mL·min^−1) passed through the reaction cell. The instrument was calibrated with air passed through a NO zero filter (0 ppm NO) and a 24.1 ppm NO standard gas (balance N2).

[8] = system: mammalian cells; settings: 200 ppm for 4 hours; cited from earlier work
[9] = amount of NO equal to 100 μg·mL^−1 nanoparticles

NCCNCCN [diethylenetriamine backbone, diethylenetriamine]
toxicity of backbone alone to P. aeruginosa ([1]; data not shown): considerable toxicity

O=C([O-])C1CCCN1[N+]([O-])=N[O-].[Na+].[Na+] (stereo not shown) [proli/NO]
toxicity to dermal fibroblasts [2]: non-toxic
amount of NO required per mL for a 3 log reduction in bacterial viability ([1]; PBS, 1 h): 4.5 μmol NO
concentration completely bactericidal (3 logs of killing) ([1]; PBS, 1 h): 2.5 mg·mL^−1
mass required relative to silica nanoparticles for complete killing ([1]; PBS, by mass): approximately 35 times
P. aeruginosa cell death (PI fluorescence) ([3]; 5 mg·mL^−1): rapid cell death
intracellular DAF-2 fluorescence prior to cell death ([3]; 5 mg·mL^−1): still not observed
P. aeruginosa cell death (PI fluorescence) [3, 9]: cell death was not observed
intracellular DAF-2 fluorescence [3, 9]: no intracellular DAF-2 fluorescence was observed
MBC120 (concentration for three logs of killing within 120 min) [4]: 16 mg/mL
toxicity to S. aureus, agent alone ([5]; 8 mg/mL proli/NO alone): non-toxic
fraction of MBC120 used in the combination ([5]; 2/16 mg/mL proli/NO, 21.9/[…] AgSD): 0.125
time to complete killing ([6]; 12 mg·mL^−1, TSB): 30 min
time of bacterial killing ([6]; 12 and 20 mg·mL^−1, TSB): < 30 min
amount of NO per mL required for complete bacterial killing ([6]; TSB): 21.6
time in which the total NO is released ([7]; PBS at pH 7.4 (Example 1)): less than 70 s
total NO released ([7]; PBS at pH 7.4 (Example 1)): 1.8 μmol NO/mg
total amount of NO released (t[NO]) ([7]; PBS pH 7.4, 37° C. (Example 2)): 1.8 μmol NO·mg^−1
time required to reach the maximum NO flux (tm) ([7]; after immersion in / addition to buffer): approximately 1 min
maximum NO flux ([NO]m) ([7]; not told, pH 7.4): > 145000 ppb·mg^−1
NO release half life (t1/2) ([7]; pH 7.4): < 2 min

O=C(O)[C@@H]1CCCN1 [proline]
killing of P. aeruginosa by controls depleted of NO ([1]; over the concentration ranges tested): no killing
toxicity to P. aeruginosa ([1]; up to 20 mg·mL^−1, the highest concentrations tested): no toxicity
growth of P. aeruginosa exposed to control solutions ([6]; TSB, 2 h): proliferated

nitric oxide [NO gas]
toxicity to mammalian cells [8]: not toxic
